Data: patent publication US20020019389A1, “Urea derivative useful as an anti-cancer agent and process for preparing same” (priority 2000, published 2002)
In brackets after ≈: the same amount, converted by molar mass. Where two headings read alike, the source gives them in different places.

What was measured:
Format in all cases: cell-based
[1] = system: SUN638 (gastric cancer) cell line; test: Anti-cancer activity in vitro, SUN638 cell line
Procedure: (§1) The anti-cancer activity and toxicity of the compound according to the present invention were evaluated in vitro using A549 (lung cancer), SUN638 (gastric cancer), HCT116 (rectal cancer), and A431 (ovarian cancer) cell lines. The above four (4) cell lines were purchased from Cancer Research Institute, Seoul National University College of Medicine. […] The experiment was basically carried out according to the process described in Monks, A., et al, Journal of National Cancer Institute. 83: 757-766 (1991) and the results are represented in the following Tables 2 and 3.

[2] = system: HCT116 (rectal cancer) cell line; test: Anti-cancer activity in vitro, HCT116 cell line
Procedure: as §1

[3] = system: A549 (lung cancer) cell line; test: Anti-cancer activity in vitro, A549 cell line
Procedure: as §1

[4] = system: A431 (ovarian cancer) cell line; test: Anti-cancer activity in vitro, A431 cell line; conditions: A431 Cell Line
Procedure: as §1

[5] = Homo sapiens, HCT-116, read-out: LC50
[6] = Homo sapiens, A549, read-out: LC50
[7] = SUN638 Cell Line, read-out: GI50
[8] = Homo sapiens, A549 Cell Line, read-out: GI50

Compound | GI50 ([1]; SUN638 Cell Line) | LC50 ([1]; SUN638 Cell Line) | TGI50 ([1]; SUN638 Cell Line) | GI50 ([2]; HCT116 Cell Line) | LC50 ([2]; HCT116 Cell Line) | TGI50 ([2]; HCT116 Cell Line) | GI50 ([3]; A549 Cell Line) | LC50 ([3]; A549 Cell Line) | TGI50 ([3]; A549 Cell Line) | GI50 [1] | LC50 ([1]; read-out: LC50) | GI50 ([2]; Homo sapiens, HCT-116) | LC50 [2, 5] | GI50 ([3]; Homo sapiens, A549) | LC50 [3, 6] | GI50 [1, 7] | GI50 [3, 8] | GI50 [4] | LC50 [4] | TGI50 [4]
COc1cc2c(cc1OC)[C@@H](c1ccccc1)CN(C(=O)Nc1nc3ccccc3nc1OC)CC2 [Compound 4, 3-[N-(2-methoxyquinoxalin-3-yl)aminocarbonyl]-(R)-7,8-dimethoxy-1-phenyl-2,3,4,5-tetrahydro-3H-benzazepine] | 1.86 µg/mL (≈ 3.84 µM) | >100 µg/mL | 6.76 µg/mL | 0.12 µg/mL (≈ 0.248 µM) | >100 µg/mL | 3.54 µg/mL | 1.20 µg/mL (≈ 2.48 µM) | >100 µg/mL | 100 µg/mL | – | – | – | – | – | – | – | – | – | – | –
COc1cc2c(cc1OC)C(c1ccc(Cl)cc1)CN(C(=O)n1ccnc1)CC2 (centres unmarked) [Compound 71, 3-[(1H-imidazol-1-yl)carbonyl]-7,8-dimethoxy-1-(4-chloro)phenyl-2,3,4,5-tetrahydro-3H-benzazepine] | 2.63 µg/mL (≈ 6.39 µM) | >100 µg/mL | 9.12 µg/mL | 2.69 µg/mL (≈ 6.53 µM) | >100 µg/mL | 14.12 µg/mL | 4.78 µg/mL (≈ 11.6 µM) | >100 µg/mL | 93.32 µg/mL | – | – | – | – | – | – | – | – | – | – | –
COc1ccc2c(c1)C(c1ccccc1)CN(C(=O)n1ccnc1)CC2 (centres unmarked) [Compound 72, 3-[(1H-imidazol-1-yl)carbonyl]-8-methoxy-1-phenyl-2,3,4,5-tetrahydro-3H-benzazepine] | 1.44 µg/mL (≈ 4.14 µM) | >100 µg/mL | 7.24 µg/mL | 0.10 µg/mL (≈ 0.288 µM) | >100 µg/mL | 9.42 µg/mL | 2.23 µg/mL (≈ 6.42 µM) | >100 µg/mL | 100 µg/mL | – | – | – | – | – | – | – | – | – | – | –
COc1cc2c(cc1OC)[C@@H](c1ccccc1)CN(C(=O)n1ccnc1)CC2 [Compound 68, 3-[(1H-imidazol-1-yl)carbonyl]-(R)-7,8-dimethoxy-1-phenyl-2,3,4,5-tetrahydro-3H-benzazepine] | 0.22 µg/mL (≈ 0.583 µM) | >100 µg/mL | 97.72 µg/mL | 0.24 µg/mL (≈ 0.636 µM) | >100 µg/mL | 10.96 µg/mL | 0.23 µg/mL (≈ 0.609 µM) | >100 µg/mL | 100 µg/mL | – | – | – | – | – | – | – | – | – | – | –
C=C(C)CN(CC)c1nc(N2CCN(C(=O)n3ccnc3)CC2)nc(N(CC)CC(=C)C)n1 [Compound 63, 1-[(1H-imidazol-1-yl)carbonyl]-4-{4,6-bis-[ethyl-(2-methylallyl)amino]-[1,3,5]triazin-2-yl}piperazine] | – | – | – | – | – | – | – | – | – | 1.81 µg/mL (≈ 3.99 µM) | > 100 µg/mL | 1.77 µg/mL (≈ 3.9 µM) | > 100 µg/mL | 2.23 µg/mL (≈ 4.92 µM) | > 100 µg/mL | – | – | – | – | –
O=C(N1CCC(c2ccccc2)(c2ccccc2)CC1)n1ccnc1 [Compound 80, 1-[(1H-imidazol-1-yl)carbonyl]-4,4-diphenyl-piperidine] | – | – | – | – | – | – | – | – | – | 1.62 µg/mL (≈ 4.89 µM) | > 100 µg/mL | 1.47 µg/mL (≈ 4.44 µM) | > 100 µg/mL | 1.38 µg/mL (≈ 4.16 µM) | > 100 µg/mL | – | – | – | – | –
COc1nc2ccccc2nc1NC(=O)N1CCC(c2ccccc2)(c2ccccc2)CC1 [Compound 16, 1-[N-(2-methoxyquinoxalin-3-yl)aminocarbonyl]-4,4-diphenyl-piperidine] | – | – | – | – | – | – | – | – | – | – | > 100 µg/mL | – | – | – | > 100 µg/mL | 0.15 µg/mL (≈ 0.342 µM) | 1.02 µg/mL (≈ 2.33 µM) | – | – | –
COc1ccc2c(c1)C(c1ccc(Cl)cc1)CN(C(=O)n1ccnc1)CC2 (centres unmarked) [Compound 74, 3-[(1H-imidazol-1-yl)carbonyl]-8-methoxy-1-(4-chloro)phenyl-2,3,4,5-tetrahydro-3H-benzazepine] | – | – | – | 1.44 µg/mL (≈ 3.77 µM) | >100 µg/mL | 7.24 µg/mL | – | – | – | – | – | – | – | – | – | – | – | – | – | –
COc1cc2c(cc1OC)[C@H](c1ccccc1)CN(C(=O)Nc1nc3ccccc3nc1OC)CC2 [Compound 3, 3-[N-(2-methoxyquinoxalin-3-yl)aminocarbonyl]-(S)-7,8-dimethoxy-1-phenyl-2,3,4,5-tetrahydro-3H-benzazepine] | 1.47 µg/mL (≈ 3.03 µM) | >100 µg/mL | 9.33 µg/mL | 1.31 µg/mL (≈ 2.7 µM) | >100 µg/mL | 5.62 µg/mL | 1.31 µg/mL (≈ 2.7 µM) | >100 µg/mL | 5.62 µg/mL | – | – | – | – | – | – | – | – | 2.04 µg/mL (≈ 4.21 µM) | >100 µg/mL | 26.30 µg/mL
COc1cc2c(cc1OC)C(c1ccc(F)cc1)CN(C(=O)Nc1nc3ccccc3nc1OC)CC2 (centres unmarked) [Compound 5, 3-[N-(2-methoxyquinoxalin-3-yl)aminocarbonyl]-7,8-dimethoxy-1-(4-fluoro)phenyl-2,3,4,5-tetrahydro-3H-benzazepine] | 1.69 µg/mL (≈ 3.36 µM) | >100 µg/mL | 6.16 µg/mL | 0.15 µg/mL (≈ 0.298 µM) | >100 µg/mL | 4.07 µg/mL | 2.08 µg/mL (≈ 4.14 µM) | >100 µg/mL | 46.98 µg/mL | – | – | – | – | – | – | – | – | – | – | –
COc1cc2c(cc1OC)C(c1ccccc1)CN(C(=O)Nc1cc(C)c(C)nc1OC)CC2 (centres unmarked) [Compound 1, 3-[N-(5,6-dimethyl-2-methoxypyridin-3-yl)aminocarbonyl]-7,8-dimethoxy-1-phenyl-2,3,4,5-tetrahydro-3H-benzazepine] | 1.99 µg/mL (≈ 4.31 µM) | >100 µg/mL | 7.07 µg/mL | – | – | – | 1.21 µg/mL (≈ 2.62 µM) | >100 µg/mL | 39.81 µg/mL | – | – | – | – | – | – | – | – | – | – | –
O=C(NC(c1ccccc1)c1ccccc1)N1CCC(c2ccccc2)(c2ccccc2)CC1 [Compound 17, 1-[N-(diphenylmethyl)aminocarbonyl]-4,4-diphenyl-piperidine] | – | – | – | – | – | – | – | – | – | – | > 100 µg/mL | – | – | – | > 100 µg/mL | 0.63 µg/mL (≈ 1.41 µM) | 6.45 µg/mL (≈ 14.4 µM) | – | – | –
COc1ccc(C#N)cc1NC(=O)N1CCN(c2cc(C)cc(C)c2)CC1 [Compound 26, 1-[(2-methoxy-5-cyanophenyl)aminocarbonyl]-4-(3,5-dimethylphenyl)piperazine] | – | – | – | – | – | – | – | – | – | – | > 100 µg/mL | – | – | – | > 100 µg/mL | 2.51 µg/mL (≈ 6.89 µM) | 1.36 µg/mL (≈ 3.73 µM) | – | – | –
C=CCN(CC=C)c1nc(N(CC=C)CC=C)nc(N2CCN(C(=O)Nc3nc4ccccc4nc3OC)CC2)n1 [Compound 53] | 2.18 µg/mL (≈ 3.92 µM) | >100 µg/mL | 5.49 µg/mL | – | – | – | 2.75 µg/mL (≈ 4.94 µM) | >100 µg/mL | 8.91 µg/mL | – | – | – | – | – | – | – | – | – | – | –
COc1cc(OC)cc(N2CCN(C(=O)n3ccnc3)CC2)c1 [Compound 58, 1-[(1H-imidazol-1-yl)carbonyl]-4-(3,5-dimethoxyphenyl) piperazine] | – | – | – | – | – | – | – | – | – | 2.39 µg/mL (≈ 7.55 µM) | > 100 µg/mL | 0.66 µg/mL (≈ 2.09 µM) | > 100 µg/mL | 2.75 µg/mL (≈ 8.69 µM) | > 100 µg/mL | – | – | – | – | –
Cc1cc(C)cc(N2CCN(C(=O)Nc3nc4ccccc4[n+]([O-])n3)CC2)c1 [Compound 28, 1-[(benzo-1,2,4-triazin-1-N-oxide-3-yl)aminocarbonyl]-4-(3,5-dimethylphenyl)piperazine] | 1.99 µg/mL (≈ 5.26 µM) | >100 µg/mL | 7.07 µg/mL | – | – | – | 1.31 µg/mL (≈ 3.46 µM) | >100 µg/mL | 34.67 µg/mL | – | – | – | – | – | – | – | – | – | – | –
COc1cc2c(cc1OC)[C@H](c1ccccc1)CN(C(=O)n1ccnc1)CC2 [Compound 69, 3-[(1H-imidazol-1-yl)carbonyl]-(S)-7,8-dimethoxy-1-phenyl-2,3,4,5-tetrahydro-3H-benzazepine] | 0.13 µg/mL (≈ 0.344 µM) | >100 µg/mL | 3.63 µg/mL | 0.13 µg/mL (≈ 0.344 µM) | >100 µg/mL | 10.71 µg/mL | 0.36 µg/mL (≈ 0.954 µM) | >100 µg/mL | 97.72 µg/mL | – | – | – | – | – | – | – | – | – | – | –
COc1cc2c(cc1OC)C(c1ccc(Cl)cc1)CN(C(=O)Nc1nc3ccccc3nc1OC)CC2 (centres unmarked) [Compound 6, 3-[N-(2-methoxyquinoxalin-3-yl)aminocarbonyl]-7,8-dimethoxy-1-(4-chloro)phenyl-2,3,4,5-tetrahydro-3H-benzazepine] | 1.90 µg/mL (≈ 3.66 µM) | >100 µg/mL | 6.91 µg/mL | 0.39 µg/mL (≈ 0.751 µM) | >100 µg/mL | 3.31 µg/mL | 2.69 µg/mL (≈ 5.18 µM) | >100 µg/mL | 100 µg/mL | – | – | – | – | – | – | – | – | – | – | –
N.N.[Cl][Pt][Cl] [Cisplatin, cisplatin, reference compound] | 1.7 µg/mL | – | 13.3 µg/mL | 2.9 µg/mL | – | 32.77 µg/mL | 3.8 µg/mL | – | 47.3 µg/mL | – | – | – | – | – | – | – | – | 3.2 µg/mL | – | 28.7 µg/mL
CCOc1nc2ccccc2nc1NC(=O)N1CCc2cc(OC)c(OC)cc2C(c2ccccc2)C1 (centres unmarked) [Compound 7, 3-[N-(2-ethoxyquinoxalin-3-yl)aminocarbonyl]-7,8-dimethoxy-1-phenyl-2,3,4,5-tetrahydro-3H-benzazepine] | 2.45 µg/mL (≈ 4.91 µM) | >100 µg/mL | 7.41 µg/mL | 0.15 µg/mL (≈ 0.301 µM) | >100 µg/mL | 4.08 µg/mL | 3.38 µg/mL (≈ 6.78 µM) | >100 µg/mL | 100 µg/mL | – | – | – | – | – | – | – | – | – | – | –
